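Values below derive from 48-hour exposures of cells grown in 96-well plates, with endpoints linearly interpolated between the two concentrations bracketing the appropriate inhibition level. Here, GI50 denotes the concentration required for 50% inhibition of growth.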 Calls of active or inactive are those of the source. No stated cut-off is given here; in the data, active = GI50 up to about 1.1 µM and inactive = higher.
How the values were obtained:
Assay in all cases: inhibition of tumour cell growth, NCI panel, 48 h
NCI-H460 = system: NCI-H460
ACHN = system: ACHN
NCI-H23 = system: NCI-H23
SF-268 = system: SF-268
EKVX = system: EKVX
SR = system: SR
RPMI-8226 = system: RPMI-8226
MDA-MB-231 = system: MDA-MB-231
HCT-15 = system: HCT-15
SK-MEL-2 = system: SK-MEL-2
CAKI-1 = system: CAKI-1
CCRF-CEM = system: CCRF-CEM
SK-MEL-5 = system: SK-MEL-5
K562 = system: K562
HL-60 = system: HL-60
HT-29 = system: HT-29
MOLT-4 = system: MOLT-4
Hs-578T = system: Hs-578T
COLO 205 = system: COLO 205
IGROV-1 = system: IGROV-1
OVCAR-8 = system: OVCAR-8
T47D = system: T47D
U-251 = system: U-251
HCT-116 = system: HCT-116
OVCAR-5 = system: OVCAR-5
A498 = system: A498
MDA-N = system: MDA-N
SNB-19 = system: SNB-19
SK-OV-3 = system: SK-OV-3
BT-549 = system: BT-549
SK-MEL-28 = system: SK-MEL-28
MDA-MB-435 = system: MDA-MB-435
KM12 = system: KM12
LOX IMVI = system: LOX IMVI
786-0 = system: 786-0
NCI/ADR-RES = system: NCI/ADR-RES
NCI-H226 = system: NCI-H226
OVCAR-3 = system: OVCAR-3
MCF7 = system: MCF7
Malme-3M = system: Malme-3M
M14 = system: M14
SW-620 = system: SW-620
UACC-62 = system: UACC-62
SF-539 = system: SF-539
DU-145 = system: DU-145
TK-10 = system: TK-10
UACC-257 = system: UACC-257
UO-31 = system: UO-31
RXF 393 = system: RXF 393
PC-3 = system: PC-3
SN12C = system: SN12C
HOP-62 = system: HOP-62
SNB-75 = system: SNB-75
HCC 2998 = system: HCC 2998
HOP-92 = system: HOP-92
NCI-H522 = system: NCI-H522
OVCAR-4 = system: OVCAR-4
SF-295 = system: SF-295
A549 = system: A549

Measured: GI50

COc1cc(C(=O)N(C(=S)OCc2ccccn2)c2ccccc2)cc(OC)c1OC
39.6 µM: HCT-15
inactive: NCI-H460 35.6 µM | ACHN 42.3 µM | NCI-H23 86.1 µM | SF-268 > 100 µM | EKVX 12.9 µM | SR 8.47 µM | RPMI-8226 26.8 µM | MDA-MB-231 78.5 µM | SK-MEL-2 > 100 µM | CAKI-1 44.7 µM | CCRF-CEM 17.8 µM | SK-MEL-5 35.2 µM | K562 41.1 µM | HL-60 27 µM | HT-29 29.9 µM | MOLT-4 25.6 µM | Hs-578T 53.7 µM | COLO 205 53.5 µM | IGROV-1 16.3 µM | OVCAR-8 62.2 µM | T47D 34.9 µM | U-251 > 100 µM | HCT-116 44.1 µM | OVCAR-5 49.2 µM | A498 53.5 µM | MDA-N 96.4 µM | SNB-19 > 100 µM | SK-OV-3 > 100 µM | BT-549 41 µM | SK-MEL-28 92.3 µM | MDA-MB-435 > 100 µM | KM12 > 100 µM | LOX IMVI 35 µM | 786-0 77.8 µM | NCI/ADR-RES 39.4 µM | NCI-H226 26.1 µM | OVCAR-3 > 100 µM | MCF7 33.7 µM | Malme-3M 8.22 µM | M14 > 100 µM | SW-620 59.7 µM | UACC-62 56.4 µM | SF-539 26.5 µM | DU-145 33.8 µM | TK-10 70.8 µM | UACC-257 > 100 µM | UO-31 25.4 µM | RXF 393 42.2 µM | PC-3 74.3 µM | SN12C 43 µM

CN1CCN(CC(=O)N2CCCn3c2nc2ccccc2c3=O)CC1
inactive: NCI-H460 > 100 µM | ACHN > 100 µM | HOP-62 > 100 µM | NCI-H23 > 100 µM | SF-268 > 100 µM | EKVX > 100 µM | SNB-75 > 100 µM | SR > 100 µM | RPMI-8226 > 100 µM | MDA-MB-231 > 100 µM | SK-MEL-2 > 100 µM | CAKI-1 > 100 µM | CCRF-CEM > 100 µM | SK-MEL-5 > 100 µM | HCC 2998 > 100 µM | K562 > 100 µM | HL-60 > 100 µM | HOP-92 48.2 µM | HT-29 > 100 µM | MOLT-4 > 100 µM | Hs-578T > 100 µM | COLO 205 > 100 µM | IGROV-1 > 100 µM | OVCAR-8 > 100 µM | T47D > 100 µM | U-251 > 100 µM | HCT-116 > 100 µM | OVCAR-5 > 100 µM | A498 > 100 µM | MDA-N > 100 µM | SNB-19 > 100 µM | SK-OV-3 > 100 µM | BT-549 > 100 µM | NCI-H522 > 100 µM | MDA-MB-435 > 100 µM | KM12 > 100 µM | LOX IMVI > 100 µM | 786-0 > 100 µM | NCI/ADR-RES > 100 µM | NCI-H226 52.1 µM | OVCAR-3 > 100 µM | MCF7 > 100 µM | Malme-3M > 100 µM | OVCAR-4 > 100 µM | M14 > 100 µM | SW-620 > 100 µM | UACC-62 > 100 µM | SF-539 > 100 µM | DU-145 > 100 µM | TK-10 > 100 µM | UACC-257 > 100 µM | UO-31 > 100 µM | SF-295 > 100 µM | A549 > 100 µM | PC-3 > 100 µM | SN12C > 100 µM
> 100 µM: HCT-15
